Laboratory results published in PubChem BioAssay (NCI).
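Assay format: 96-well plates, 48-hour exposure. TGI: total growth inhibition.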

Assays:
Test in all cases: NCI anticancer screen, dose series, 48 h
[1] = test system: RXF 393 renal
[2] = test system: M19-MEL melanoma
[3] = test system: SW-620 colon
[4] = test system: IGROV1 ovarian
[5] = test system: MALME-3M melanoma
[6] = test system: NCI-H23 lung
[7] = test system: HCT-116 colon
[8] = test system: CAKI-1 renal
[9] = test system: UACC-257 melanoma
[10] = test system: HOP-62 NSCLC
[11] = test system: K-562 leukemia
[12] = test system: HOP-92 NSCLC
[13] = test system: SNB-78 CNS
[14] = test system: M14 melanoma
[15] = test system: LXFL 529 NSCLC
[16] = test system: RPMI-8226 leukemia
[17] = test system: HT29 colon
[18] = test system: KM12 colon
[19] = test system: DLD-1 colon
[20] = test system: OVCAR-8 ovarian
[21] = test system: SNB-19 CNS
[22] = test system: A498 renal
[23] = test system: SK-MEL-5 melanoma
[24] = test system: DMS 114 small cell lung
[25] = test system: SN12C renal
[26] = test system: HCC-2998 colon
[27] = test system: SK-MEL-2 melanoma
[28] = test system: MOLT-4 leukemia
[29] = test system: 786-0 renal
[30] = test system: OVCAR-3 ovarian
[31] = test system: SK-OV-3 ovarian
[32] = test system: CCRF-CEM leukemia
[33] = test system: SF-268 CNS
[34] = test system: U251 CNS
[35] = test system: HL-60(TB) leukemia
[36] = test system: SF-539 CNS
[37] = test system: DMS 273 small cell lung
[38] = test system: TK-10 renal
[39] = test system: NCI-H226 lung
[40] = test system: UACC-62 melanoma
[41] = test system: ACHN renal
[42] = test system: SR leukemia
[43] = test system: XF 498 CNS
[44] = test system: OVCAR-5 ovarian
[45] = test system: EKVX NSCLC
[46] = test system: SK-MEL-28 melanoma
[47] = test system: SF-295 CNS
[48] = test system: HOP-18 NSCLC
[49] = test system: COLO 205 colon
[50] = test system: NCI-H460 lung
[51] = test system: UO-31 renal
[52] = test system: A549 NSCLC
[53] = test system: NCI-H522 lung
[54] = test system: LOX IMVI melanoma
[55] = test system: DU-145 prostate
[56] = test system: MDA-N
[57] = test system: MDA-MB-231 breast
[58] = test system: OVCAR-4 ovarian
[59] = test system: HS 578T breast
[60] = test system: HCT-15 colon
[61] = test system: NCI/ADR-RES ovarian
[62] = test system: PC-3 prostate
[63] = test system: BT-549 breast
[64] = test system: MCF7 breast
[65] = test system: MDA-MB-435
[66] = test system: T-47D breast
[67] = test system: SNB-75 CNS

O=C1OC(=O)C2C3CCC(O3)C12 (stereo not given)
TGI [1]: > 100 µM | TGI [2]: > 100 µM | TGI [3]: > 100 µM | TGI [4]: > 100 µM | TGI [5]: > 100 µM | TGI [6]: > 100 µM | TGI [7]: > 100 µM | TGI [8]: > 100 µM | TGI [9]: > 100 µM | TGI [10]: > 100 µM | TGI [11]: > 100 µM | TGI [12]: > 100 µM | TGI [13]: > 100 µM | TGI [14]: > 100 µM | TGI [15]: > 100 µM | TGI [16]: > 100 µM | TGI [17]: > 100 µM | TGI [18]: > 100 µM | TGI [19]: > 100 µM | TGI [20]: > 100 µM | TGI [21]: > 100 µM | TGI [22]: > 100 µM | TGI [23]: > 100 µM | TGI [24]: > 100 µM | TGI [25]: > 100 µM | TGI [26]: > 100 µM | TGI [27]: > 100 µM | TGI [28]: > 100 µM | TGI [29]: > 100 µM | TGI [30]: > 100 µM | TGI [31]: > 100 µM | TGI [32]: > 100 µM | TGI [33]: > 100 µM | TGI [34]: > 100 µM | TGI [35]: > 100 µM | TGI [36]: > 100 µM | TGI [37]: > 100 µM | TGI [38]: > 100 µM | TGI [39]: > 100 µM | TGI [40]: > 100 µM | TGI [41]: > 100 µM | TGI [42]: > 100 µM | TGI [43]: > 100 µM | TGI [44]: > 100 µM | TGI [45]: > 100 µM | TGI [46]: > 100 µM | TGI [47]: > 100 µM | TGI [48]: > 100 µM | TGI [49]: > 100 µM | TGI [50]: > 100 µM | TGI [51]: > 100 µM | TGI [52]: > 100 µM

CC1=COC2=C(C)C(=O)C(=O)c3c(C)ccc1c32
TGI [1]: 21.5 µM | TGI [53]: 8.27 µM | TGI [54]: 16 µM | TGI [3]: 28.9 µM | TGI [4]: 21.6 µM | TGI [5]: 16 µM | TGI [55]: 20.3 µM | TGI [6]: 14.3 µM | TGI [7]: 20.6 µM | TGI [56]: 3.26 µM | TGI [8]: > 63.4 µM | TGI [57]: 23.6 µM | TGI [9]: 20.6 µM | TGI [10]: > 36.9 µM | TGI [11]: > 100 µM | TGI [12]: 39.9 µM | TGI [14]: 13.8 µM | TGI [16]: 97.2 µM | TGI [58]: 13.5 µM | TGI [59]: > 95.7 µM | TGI [17]: 12.8 µM | TGI [18]: 26.4 µM | TGI [20]: 12.4 µM | TGI [21]: > 40.5 µM | TGI [22]: 41.8 µM | TGI [23]: 3.26 µM | TGI [60]: 11.5 µM | TGI [25]: 14.1 µM | TGI [26]: 19.6 µM | TGI [27]: > 40.1 µM | TGI [28]: 12 µM | TGI [29]: 19.6 µM | TGI [61]: 7.87 µM | TGI [62]: 22.5 µM | TGI [63]: 38.3 µM | TGI [31]: > 93.2 µM | TGI [32]: > 76.1 µM | TGI [33]: 36.6 µM | TGI [34]: > 44.7 µM | TGI [35]: 5.38 µM | TGI [36]: 10.7 µM | TGI [64]: 8.92 µM | TGI [38]: > 92.6 µM | TGI [39]: 68.9 µM | TGI [40]: 11.9 µM | TGI [41]: 29.5 µM | TGI [42]: > 42.6 µM | TGI [44]: 34.8 µM | TGI [65]: 3.86 µM | TGI [45]: 24.7 µM | TGI [46]: > 100 µM | TGI [47]: 18.8 µM | TGI [49]: 8.91 µM | TGI [50]: 15.4 µM | TGI [66]: 27.7 µM | TGI [51]: 40.6 µM | TGI [52]: 15.2 µM | TGI [67]: 42.6 µM
